In the CombiSolv-Exp solvation set (Vermeire and Green 2021):

Experiment: solvent given as SMILES

CCCOC(C)=O
Settings | solvation free energy, 298 K [kcal/mol]
in CC(=O)N(C)C | -4.72
in CC(C)CCCC(C)CCCC(C)CCCCC(C)CCCC(C)CCCC(C)C | -3.84
in CCCCC(CC)COC(=O)CCCCC(=O)OCC(CC)CCCC | -4.3
in CCCCCC | -4.03
in CCCCCCC | -4.02
in CCCCCCCC | -4.02
in CCCCCCCCC=CCCCCCCCC(=O)OCC(COC(=O)CCCCCCCC=CCCCCCCCC)OC(=O)CCCCCCCC=CCCCCCCCC | -4.35
in CCCCCCCCCC | -3.96
in CCCCCCCCCCCCCCCC | -3.9
in CCCCCCCCO | -4.33
in CCCCCO | -4.31
in CCCCN(C=O)CCCC | -4.56
in CCOCCO | -4.71
in CN1CCCC1=O | -4.62
in CN1CCCCC1=O | -4.72
in CNC(C)=O | -4.54
in CO | -4.82
in NC=O | -3.72
in O | -2.8
in O=CN1CCOCC1 | -4.42
in [2H]O[2H] | -2.84

CCC(O)C(C)(C)C (stereo not given)
Settings | solvation free energy, 298 K [kcal/mol]
in CCCCCCCC | -4.93
in CCCCCCCCCC | -4.85

FC(F)(F)Br
Settings | solvation free energy, 298 K [kcal/mol]
in O | 1.79

Clc1ccc(Cl)cc1
Settings | solvation free energy, 298 K [kcal/mol]
in CCCCCC | -6.06
in CCCCCCC | -5.81
in CCCCCCCCC=CCCCCCCCC(=O)OCC(COC(=O)CCCCCCCC=CCCCCCCCC)OC(=O)CCCCCCCC=CCCCCCCCC | -6.7
in O | -1.01

CCCCCCCCCCCCCCCCCC
Settings | solvation free energy, 298 K [kcal/mol]
in CC(=O)N(C)C | -12.1
in CCCCCCCCC=CCCCCCCCC(=O)OCC(COC(=O)CCCCCCCC=CCCCCCCCC)OC(=O)CCCCCCCC=CCCCCCCCC | -12.4
in CCCCOC(C)=O | -11.9
in CCO | -10.3
in O | 4.15

Oc1ccc(Cl)c(Cl)c1
Settings | solvation free energy, 298 K [kcal/mol]
in O | -7.29

Brc1cccc(Br)c1
Settings | solvation free energy, 298 K [kcal/mol]
in O | -1.99

CCCCCl
Settings | solvation free energy, 298 K [kcal/mol]
in C1CCOC1 | -4.57
in C1CCOCC1 | -4.52
in C1COCCO1 | -4.4
in C=CCCCCCCCCCCCCCC | -3.77
in CC(C)(C)O | -3.7
in CC(C)=O | -4.26
in CC(C)CC(C)(C)C | -3.91
in CC(C)CO | -3.72
in CC(C)OC(C)C | -4.21
in CCC(C)O | -3.72
in CCCBr | -4.49
in CCCCCC | -4.05
in CCCCCCC | -3.96
in CCCCCCCCC=CCCCCCCCC(=O)OCC(COC(=O)CCCCCCCC=CCCCCCCCC)OC(=O)CCCCCCCC=CCCCCCCCC | -3.93
in CCCCCCCCCCCCCCCC | -3.68
in CCCCCCCCCCO | -3.67
in CCCCCCCCO | -3.71
in CCCCOC | -4.37
in CCCCOCCCC | -4.11
in CCCO | -3.59
in CCCOCCC | -4.23
in CCI | -4.43
in CCOC(C)=O | -4.31
in CCOCC | -4.38
in COC(C)(C)C | -4.3
in ClC(Cl)(Cl)Cl | -4.31
in ClCCCl | -4.43
in Clc1ccccc1 | -4.35
in O | -0.23
in [2H]O[2H] | -0.73
